Test results published in a melting point compilation (Tetko et al.; mined from patent text by program, amines drawn as free bases though some values may be those of a salt).

`COc1cc(N)ccc1NC(=O)c1ccc(N)cc1` gave a melting point of 160 to 161 °C.
With `NC(=C[N+](=O)[O-])NC1=CC2CCC1C2` (centres undefined) the melting point was 128 to 132 °C.
With `CC(=O)Nc1ccc([N+](=O)[O-])cc1-c1cc([N+](=O)[O-])ccc1NC(C)=O` the melting point was 263 to 265 °C.
Molecule `CC1=C2CCc3cc(Cl)ccc3N2CCC1=O` has a melting point of 112 to 114 °C.
With `Nc1ccc(C(=O)Nc2ccc(N)cc2Cl)cc1` the melting point was 194 to 197 °C.
Work on `COC(=O)c1cc(C(C)O)c(C(F)(F)F)cc1NC(C)=O` (centres undefined) yielded a melting point of 120 to 122 °C.
`COc1cccnc1C(O)c1cc(F)ccc1F` (centres undefined) showed a melting point of 94 to 95 °C.
`O=c1[nH]c2ccccc2n1Cc1ccccc1` gave a melting point of 194 °C.
In the case of `O=C(O)c1cccc(NC(=S)Nc2ccc3c(Cl)c(OCCBr)oc(=O)c3c2)c1`, the melting point is reported as 157 to 158 °C.
`CCCCCCCCCCC(O)Cn1ccnc1-c1ccccn1` (centres undefined) showed a melting point of 62 to 65 °C.
With `Cc1ccccc1-c1cccc(F)c1C#N` the melting point was 57 to 58 °C.
`COc1ccc2[nH]c(C)c(/C=C/C(=O)c3ccncc3)c2c1` gave a melting point of 256 to 259 °C.
Molecule `Nc1ccc(NC2CCCCCCC2)c([N+](=O)[O-])c1` has a melting point of 161 °C.
With `Clc1ccc(-c2cccnc2)cn1` the melting point was 113 to 115 °C.
In the case of `CCCCOc1ccc(CO)c(Oc2ncc(C(F)(F)F)cc2Cl)c1`, the melting point is reported as 77.8 to 79.2 °C.
For `CC1(C)CCN(c2ccc(-c3nc(C(=O)Nc4nccs4)c(-c4ccc(Cl)cc4)[nH]3)cc2)CC1`, the melting point was 150 to 154 °C.
Molecule `O=C(O)c1ccc(OC(F)(F)F)c(Cl)c1` has a melting point of 110 to 112 °C.
`CC(C)(C)OC(=O)NC(C(=O)O)C1(O)CCSC1` (centres undefined) gave a melting point of 116 to 118 °C.
Work on `CCCCCCCCCCCCCCOc1ccc(C(=O)OC)cc1C(C)(C)C` yielded a melting point of 44 to 45 °C.
Work on `COc1ccc(N2CCOCC2)c2sc(C(=O)NCC(=O)c3ccccc3)nc12` yielded a melting point of 165 °C.
For `Cc1cc2c(cc1-c1ccncc1)C(=O)C(=O)N2`, the melting point was 292 to 294 °C.
With `COc1c(C(=O)OCc2ccccc2)nc(-c2ccc(Cl)c(OC)c2F)c(F)c1N` the melting point was 119 °C.
In the case of `C#CCN(C(=O)C(F)(F)F)[C@H]1CCc2ccc([N+](=O)[O-])cc21`, the melting point is reported as 83 to 85 °C.
In the case of `CCCc1c(OCC2COc3cc(CC(=O)OC)ccc3O2)ccc(C(C)=O)c1O` (centres undefined), the melting point is reported as 72 to 75 °C.
Molecule `OCCOc1ccc(C2=NCCO2)cc1` has a melting point of 149 to 150 °C.
For `CSc1ccc([N+](=O)[O-])cc1C(F)(F)F`, the melting point was 50 °C.
`Nc1ccc2c(c1)c(CC(=O)O)cc(=O)n2Cc1ccc(Cl)cc1` showed a melting point of 196 to 199 °C.
`CC12CCC(C1)C1(C)Oc3ccc(C(=O)c4ccc(C=O)cc4)cc3C21C` (centres undefined) gave a melting point of 138 to 142 °C.
With `CN1CCC(=C2c3ccccc3[C@@H](O)[C@@H](O)c3ccccc32)CC1` the melting point was 248 to 255 °C.
Work on `CN(C)C(N)=Nc1cc(S(C)=O)ccc1N1CCOCC1` (centres undefined) yielded a melting point of 160 to 161 °C.
`CC1COc2cc(NC(=O)OCc3ccccc3)ccc2N1C(=O)OCc1ccccc1` (centres undefined) gave a melting point of 104 to 106 °C.
`CCOCc1cc2cc(Cl)ccc2oc1=Nc1ccc(Cl)cc1` showed a melting point of 126 to 128 °C.
Work on `CNC(=O)[C@@H]1CCCN1C(=O)[C@H](C)NC(=O)OCc1ccccc1` yielded a melting point of 126 to 129 °C.
Work on `CCOC(=O)C(=O)CC(=O)c1cn(Cc2c(F)cccc2F)c2ccccc2c1=O` yielded a melting point of 172 to 173 °C.
